Assay results reported in US10617662B2, “Autophagy activation-induced compound for improving skin inflammation for aging” (INCOSPHARM CORPORATION, priority 2017, dated 2020).

Columns and labels:
[1] = tested on: Tbet (T-box transcription factor); assay: Expression of psoriasis-related transcription factor Tbet in induced inflammatory condition; format: cell-based, human; conditions: IL-17A/TNFα- or IL-17A/IFNγ-induced inflammatory condition
Experimental: [The source words this procedure for another target and says it was used here with some conditions changed.] (§1) A psoriasis-related genes were selected from the cDNA array result in which Compound 8 of the present invention was treated in HaCaT cells. In order to analyze whether Compound 8 has an effect on psoriasis alleviation, RT-PCR analysis for IL-36′ (interleukin 36 gamma), KLK7 (Kallikrein-related peptidase 7), OASL (2′-5′-Oligoadenylate Synthetase Like) and ALOX12B (Arachidonate 12-lipoxygenase, 12R type) which are very closely related to psoriasis was carried out. Further, KRT16 (Keratin 16), KRT6 (Keratin 6) and KRT1 (Keratin 1), known as psoriasis-related proliferation, differentiation markers were confirmed by a western blot analysis. As the specific experimental method, HEKa cells (Human Epidermal keratinocytes, adult), human-derived epidermal keratinocytes were seeded on a 24 well plate at a density of 1×10^5 cells, and cultured in an EpiLife medium (1× Human keratinocyte Growth supplement, 1× antibiotics) in an incubator under 37° C. and 5% CO2 for 24 hours. […]

[2] = tested on: psoriasis animal model induced by imiquimod 5% cream; assay: Psoriasis animal model (imiquimod), clinical findings: erythema; format: in vivo, BALB/c mice
Experimental: In order to confirm the psoriasis treatment effect by Compound 8 of the present invention, dorsal hair of 8-week-old BALB/c mice (female) was removed using hair removal cream (Veet®, Oxy Reckitt Benckiser, Cedex, France), and subsequently imiquimod 5% cream (Aldara®; 3M Pharmaceuticals, UK; 62.5 mg) was applied on the back and both ears of the mice twice in the morning and in the afternoon (Sensitization; Day 0). Then, after a barrier recovery period of 2 days, imiquimod 5% cream (62.5 mg/day) was applied repeatedly for 7 days (Induction stage; Day 2 -Day 8), thereby inducing the psoriasis animal model.
After inducing the psoriasis animal model, Compound 8 of the present invention dissolved in ethanol (0.5%) and cream containing Compound 8 of the present invention (The same composition as that of the cosmetic composition of Example 14 […]; […]). An untreated control group and a disease control group (vehicle) were treated with cream not containing Compound 8 of the present invention (cosmetic composition of Comparative Example 2) and ethanol, and during the treatment period, imiquimod 5% cream was applied thereon every other day, thereby maintaining psoriasis.

[3] = tested on: KLK7 (Kallikrein-related peptidase 7); assay: RT-PCR of psoriasis-related gene KLK7; format: cell-based, human; conditions: HEKa cells, 20 uM, FIGS. 2 and 3
Experimental: as §1

[4] = tested on: STAT3 (Signal transducer and activator of transcription 3); assay: Expression of psoriasis-related transcription factor STAT3 in induced inflammatory condition; format: cell-based, human; conditions: IL-17A/TNFα- or IL-17A/IFNγ-induced inflammatory condition
[5] = tested on: ULK-1 (Serine/threonine-protein kinase-1); assay: Western blot for ULK-1 protein; format: cell-based, human; conditions: HaCaT cells; 20 uM dilution, 1 ml added to 1 ml medium; FIG. 1
Experimental: In order to analyze which gene expression is related to increased autophagy activation by Compound 8 of the present invention, a western blot analysis for Beclin-1 and ULK-1 (Serine/threonine-protein kinase-1) proteins which are closely related to autophagy activation was performed.
As a specific experimental method, HaCaT cells, human-derived keratinocytes were seeded on a 60Ø dish at a density of 3×10^5 cells, and cultured in DMEM (Dulbecco's Modified Eagle Media, Gibco BRL) in an incubator under 37° C. and 5% CO2 for 24 hours. Compound 8 of the present invention was dissolved in DMSO at a concentration of 10 mM each to be a concentrate, and diluted with a medium to be at a concentration of 20 uM. Then in a state where 1 ml of medium was first in each well, 1 ml of each diluted solution was added thereto for treatment, and cultured for a certain period, and after completing the culturing, the medium was removed, and then cells were disrupted with a SDS sample buffer, and each protein was separated by SDS-PAGE gel electrophoresis, and transferred to a PVDF membrane. […]

[6] = tested on: KRT16 (Keratin 16); assay: Western blot of proliferative marker KRT16; format: cell-based, human; conditions: FIG. 4
Experimental: as §1

[7] = tested on: IL-20 (interleukin-20); assay: Cytokine gene expression, IL-20, TNFα/IFN-γ induced inflammatory condition; format: cell-based, human; conditions: FIG. 8
[8] = tested on: IL-1β (interleukin-1beta); assay: ELISA for IL-1β in LPS-treated HEKa cells; format: cell-based, human; conditions: LPS-induced inflammatory condition, 10·M, FIG. 10
Experimental: ELISA (enzyme-linked immunosorbent assay) for IL-1β (interleukin-1beta) which is very closely related to atopic inflammation and psoriasis was performed.
As a specific experimental method, HEKa cells (Human Epidermal keratinocytes, adult), human-derived epidermal keratinocytes were seeded on a 24 well plate at a density of 1×10^5 cells, and cultured in an EpiLife medium (1× Human keratinocyte Growth supplement, 1× antibiotics) in an incubator under 37° C. and 5% CO2 for 24 hours.
After culturing, while an inflammatory condition was induced by treatment with LPS (lipopolysaccharides) in each well, further treatment was performed with Compound 8 of the present invention and the compound of the following Comparative Example at a concentration of 10·M, and then the cells were incubated for a certain period. After completing culturing, media were collected, and then ELISA for IL-1β was carried out, and the results are shown in FIG. 10.

Question: With `CCCCCCCCCCCCCCCC(=O)NCCCC[C@H](NC(=O)[C@H](CCCCN(CC(=O)O)CC(=O)O)N(CC(=O)O)CC(=O)O)C(=O)O` [Compound 8] as the molecule, how does the “expression level of Tbet” value [1] read?
Answer: reduced

Question: What about the “erythema on day 14, reduction level” value ([2]; day 14 after treatment, FIG. 14) of the same molecule?
Answer: very remarkable

Question: What about the “erythema increased by imiquimod” value ([2]; topical on back, 0.5% in ethanol or 0.5% cream, treatment for 6 days, FIG. 13) of the same molecule?
Answer: significantly reduced

Question: And the “expression level of KLK7 gene” value [3]?
Answer: significantly decreased

Question: What about the “expression level of STAT3” value [4] of the same molecule?
Answer: reduced

Question: And the “expression of ULK-1 protein” value [5]?
Answer: significantly increased

Question: What about the “KRT16 (proliferative marker) level” value [6] of the same molecule?
Answer: reduced

Question: What about the “expression level of IL-20” value [7] of the same molecule?
Answer: reduced

Question: What about the “cytokine IL-1β secretion level” value [8] of the same molecule?
Answer: significantly reduced
